Data as given in the supplement of paper PMC10307832.

How the values were obtained:
Assay in all cases: relative viability (nuclei count vs DMSO), 5 days (fraction); higher = more cells survive
AZD1208 + Tozasertib = compound: N[C@@H]1CCCN(c2c(/C=C3\SC(=O)NC3=O)cccc2-c2ccccc2)C1 [AZD1208] + Cc1cc(Nc2cc(N3CCN(C)CC3)nc(Sc3ccc(NC(=O)C4CC4)cc3)n2)n[nH]1 [Tozasertib] (partner 0.1 µM)
Summary of the method: (§1)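 Relative viability was taken as the ratio of nuclei in treated wells to nuclei in vehicle wells. Lung cancer cell lines in 1536-well plates received compounds by pin tool one day after seeding, either one drug alone or a fixed anchor-drug dose plus five library-drug doses (not always all listed) in √10 steps. Nuclei were counted on 4× images after 5 days of treatment, and values are medians of duplicate plates.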

AZD1208 + Pemetrexed = compound: N[C@@H]1CCCN(c2c(/C=C3\SC(=O)NC3=O)cccc2-c2ccccc2)C1 [AZD1208] + Nc1nc2[nH]cc(CCc3ccc(C(=O)N[C@@H](CCC(=O)O)C(=O)O)cc3)c2c(=O)[nH]1 [Pemetrexed] (partner 0.2 µM)
Summary of the method: as §1

XMD14-99 + Pemetrexed = compound: CN1CCN(CC1)C2=CC(=C(C=C2)NC3=NC(=C(S3)C(=O)C4=C(C=CC=C4Cl)Cl)N)OC [XMD14-99] + Nc1nc2[nH]cc(CCc3ccc(C(=O)N[C@@H](CCC(=O)O)C(=O)O)cc3)c2c(=O)[nH]1 [Pemetrexed] (partner 0.2 µM)
Summary of the method: as §1

AZD1208 + Foretinib = compound: N[C@@H]1CCCN(c2c(/C=C3\SC(=O)NC3=O)cccc2-c2ccccc2)C1 [AZD1208] + COc1cc2c(Oc3ccc(NC(=O)C4(C(=O)Nc5ccc(F)cc5)CC4)cc3F)ccnc2cc1OCCCN1CCOCC1 [Foretinib] (partner 0.25 µM)
Summary of the method: as §1

Cell Line	relative viability (AZD1208 + Tozasertib; first compound 0.08 µM)	relative viability (AZD1208 + Tozasertib; first compound 0.253 µM)	relative viability (AZD1208 + Tozasertib; first compound 0.8 µM)	relative viability (AZD1208 + Tozasertib; first compound 2.53 µM)	relative viability (AZD1208 + Tozasertib; first compound 8 µM)	relative viability (AZD1208 + Pemetrexed; first compound 0.08 µM)	relative viability (AZD1208 + Pemetrexed; first compound 0.253 µM)	relative viability (AZD1208 + Pemetrexed; first compound 0.8 µM)	relative viability (AZD1208 + Pemetrexed; first compound 2.53 µM)	relative viability (AZD1208 + Pemetrexed; first compound 8 µM)	relative viability (XMD14-99 + Pemetrexed; first compound 0.08 µM)	relative viability (XMD14-99 + Pemetrexed; first compound 0.8 µM)	relative viability (XMD14-99 + Pemetrexed; first compound 2.53 µM)	relative viability (XMD14-99 + Pemetrexed; first compound 8 µM)	relative viability (AZD1208 + Foretinib; first compound 0.08 µM)	relative viability (AZD1208 + Foretinib; first compound 0.253 µM)	relative viability (AZD1208 + Foretinib; first compound 0.8 µM)	relative viability (AZD1208 + Foretinib; first compound 2.53 µM)	relative viability (AZD1208 + Foretinib; first compound 8 µM)
EPLC-272H	0.231	0.351	0.263	0.149	0.197	0.353	0.422	0.376	0.342	0.406	0.406	0.335	0.324	0.291	0.714	0.71	0.618	0.564	0.478
NCI-H1395	0.803	0.68	0.677	0.629	0.571	0.937	0.859	0.699	0.787	0.673	0.838	0.953	0.904	0.729	0.988	1	1.01	0.97	0.959
NCI-H2228	0.258	0.165	0.168	0.172	0.108	0.328	0.368	0.357	0.371	0.344	0.324	0.319	0.398	0.257	0.78	0.809	0.635	0.842	0.761
LXF-289	0.178	0.158	0.16	0.131	0.123	0.887	1.01	0.924	0.634	1.02	0.692	0.862	0.85	0.781	0.978	1.03	0.996	0.962	1.03
NCI-H2023	0.389	0.235	0.254	0.219	0.181	0.263	0.207	0.241	0.243	0.229	0.249	0.249	0.224	0.167	0.811	0.462	0.795	0.805	0.634
SW 900	0.535	0.56	0.528	0.552	0.428	0.475	0.443	0.454	0.472	0.469	0.518	0.476	0.461	0.471	0.817	0.807	0.691	0.947	0.923
NCI-H3122	0.402	0.315	0.353	0.348	0.369	0.201	0.187	0.195	0.207	0.187	0.192	0.185	0.205	0.164	0.991	1.05	0.924	1.08	0.945
NCI-H1755	0.525	0.532	0.52	0.417	0.358	0.451	0.457	0.532	0.426	0.413	0.419	0.378	0.37	0.391	0.908	0.892	0.851	0.861	0.787
